# Measured values published in patent US20240197809A1, “HAIR CARE COMPOSITION AND BANANA FLOWER EXTRACT AND METHOD FOR HAIR CARE USING THE SAME” (TCI CO., LTD., priority 2022, published 2024).
# Legend:
# [1] = system: dihydrotestosterone content in human prostate cell LNcap; experiment: Test of banana flower extract to inhibit dihydrotestosterone (DHT ELISA in testosterone-treated LNcap cells); format: cell-based; conditions: testosterone 2 h, blank group 32.8 pg/mL
# Method: A significant increase in the production of dihydrotestosterone (DHT) in hair follicles of the forehead can be observed in young bald female patients. If the dihydrotestosterone can be inhibited, the effect of caring hair follicles and promoting hair growth is achieved. In this test, whether the content of the dihydrotestosterone in human prostate cells treated with different concentrations of banana extract was reduced or not was measured, and a common therapeutic drug Propecia for alopecia androgenetica was used as control.
# Cell line: Human prostate cell LNcap (purchased from BCRC; access number Cat. 60088), hereinafter referred to as LNcap cell.
# Cell medium (human prostate cell LNcap cell medium): RPMI 1640 Medium (RPMI), powder (Gibco; Cat. 31800-022), 10% fetal bovine serum (FBS) (Gibco; Cat. 10437-028) and 1% Antibiotic-Antimycotic (AA) (Gibco; Cat. 15240-062).
# Reagent: 1×DPBS (Gibco, Cat. 14200-075), trypsin (1× Trypsin-EDTA, purchased from Thermo, Cat. FNN0011), Propecia (also referred to as Finasteride, purchased from Sigma; Cat. F1293), Testosterone (purchased from Sigma; Cat. T1500), and cell lysis buffer (purchased from RIPA Lysis and Extraction Buffer (Thermo #89900).
# Detection kits: dihydrotestosterone ELISA Reagent Detection Kits (USCN; CEA443Ge).
# Firstly, LNcap cells were implanted into a 6-well cell culture plate in a density of 1×10^5 LNcap cells and cultured at 37° C. in a 5% carbon dioxide incubator for 24 h.
# The cultured LNcap cells were divided into an experimental group A, an experimental group B, a control group and a blank group. […]
# Next, a 200 μL 1× cell lysis buffer was added into the tube to lyse the LNcap cells. […] Finally, the dihydrotestosterone content in the LNcap cells was detected by using a dihydrotestosterone ELISA kit. […]
# (§1) Here, whether two groups compared have a statistically significant difference or not is analyzed with a single-tailed student t-test to obtain their p-values. […]
# [2] = system: Human Follicle Dermal Papilla Cells (HFDPC); experiment: Hair follicle cell proliferation test (Click-iT EdU flow cytometry); format: cell-based
# Excerpt: Hair follicle cells are the foundation of hair. In hair follicle cells at the growth phase, cells in hair follicle bulbs of the hair root can divide once a day. If the proliferation of the hair follicle cells is promoted, the effect of promoting hair growth can be achieved. In this test, the proliferation of human follicle dermal papilla cells treated with the compound I was examined.
# Cell line: Human Follicle Dermal Papilla Cells (HFDPC) (purchased from PromoCell; Cat. C-12071), hereinafter referred to as HFDPC cells.
# Detection kit: Cell proliferation ELISA reagent detection kit (Click-iT™ Plus EdU Flow Cytometry Assay Kits-Alexa Fluor™ 488 picolyl azide, 50 tests, brand Invitrogen, model C10632), containing composition C (Dimethyl sulfoxide DMSO), composition D (Click-iT™ fixative), composition E (Click-iT™ saponin-based permeabilization and wash reagent), composition F (Copper protectant), and composition G (Click-iT™ EdU buffer additive).
# Firstly. […]
# The supernatant was removed. […] Finally, a fluorescence signal was measured with a flow cytometer (excitation light: 488 nm; scattered light: 527 nm and 590 nm).
# as §1
smiles,measurement,setting,value
"O=C(O)CC(O)(CC(=O)O)C(=O)NCCc1ccc(O)c(O)c1 [compound I, N-β-citroyldopamine]",dihydrotestosterone content,[1]; 5 μg/mL (experimental group B),25.20 pg/mL
same,dihydrotestosterone content,[1]; 10 μg/mL (experimental group A),25.03 pg/mL
same,number of the HFDPC cells (blank group = 100%),"[2]; 10 μg/mL, Example 3, FIG. 2",118.81%
"CC(=O)OCC1O[C@H](O[C@]2(CO)O[C@H](COC(C)=O)C(O)C2OC(=O)/C=C/c2ccc(O)cc2)C(OC(C)=O)C(OC(C)=O)[C@@H]1O (stereo partly drawn) [compound II, 6,2′,3′,6′-O-tetraacetyl-3-O-trans-p-coumaroylsucrose]",number of the HFDPC cells (blank group = 100%),"[2]; 100 μM, Example 4, FIG. 3",112.54%
"CC(C)(C)NC(=O)[C@H]1CC[C@H]2[C@@H]3CC[C@H]4NC(=O)C=C[C@]4(C)[C@H]3CC[C@]12C [Propecia, Finasteride, reference compound]",dihydrotestosterone content,[1]; 20 μg/mL (control group),17.16 pg/mL
